Data on five compounds can be found in patent publication US4895856A, “Derivatives of 5-pentylamino-5-oxopentanoic and 4-pentylamino-4-oxobutanoic acids with antagonistic activity towards cholecystokinin” (Rotta Research Laboratorium S.p.A., priority 1986, dated 1990).

As a reminder, the IC50 is the concentration that inhibits the measured activity by half.

Read-outs that look alike come from different tables or passages of the source.

Data set [1] has as its system gallbladder. Kind of data set: Antispastic activity on the gallbladder in mice (egg yolk-induced emptying). In kind it is in vivo. To be noted: for % inhibition of the emptying of the gallbladder: egg yolk; for ED50: Mus musculus, ip, read-out: ID50 (antispastic activity on contraction of the gallbladder induced by egg yolk). Here is the method:
(§1) Emptying of the gall bladder was induced by a single oral administration of 1 ml of a 30% suspension (weight/volume) of lyophylised egg yolk in a physiological solution.
(§2) As stated above once it has been absorbed egg yoke induces a release of endogenous CCK.
(§3) The antagonistic compounds were administered intraperitoneally (i.p.) 15 minutes before the contractant.
(§4) The % antispastic activity for each dose was calculated from the following formula: [formula] where P1 =the average weight of the gallbladders of the group of animals treated with the drug plus the contractant.
(§5) P2 =the average weight of the gallbladders of the group of animals treated with the contractant only.
(§6) P3 --the average weight of the gallbladders of the control group of animals.
(§7) The results obtained are given in Table 5 where the effects obtained are expressed as the ID50.

For data set [2], the system named is pyloric sphincter. Nature of the data set: Antispastic activity on pyloric contraction induced by CCK in rats. The data set is classed as in vivo. To be noted: for % inhibition of the pyloric contraction: CCK 8 mcg/kg i.p.; for ED50: Rattus norvegicus, ip, i.p. 15 minutes before CCK 8 mcg/kg i.p., read-out: ID50 (antispastic activity on the pyloric contraction induced by CCK). The method, then:
A dose of 8 mcg/kg i.p. of CCK was used, which induced a sub-maximal contraction of the pylorus. The antagonistic compounds were administered (i.p.) 15 minutes before the contractant. 10 minutes after administration of the contractant, the animals were treated per os with 25 ml/kg of H2 O. 5 minutes after the administration the animals were killed, their stomachs removed and the gastric content measured by removal with a syringe.
The % antispastic activity for each dose administered was calculated from the following formula: [formula] where V1 =the volume of gastric content of the group of animals treated with the drug plus the contractant.
V2 =the volume of gastric content of the group of animals treated with the contractant only.
V3 =the volume of gastric content of the control group of animals.
Various doses of the compounds were tested so as to enable the calculation of an ID50 value, that is the dose (in mg/kg i.p.) which is able to inhibit the contractant effect of CCK by 50%.
The results obtained are given in Table 6 where the effects obtained are expressed as the ID50.

Data set [3] deals with pancreas. Kind of data set: Protective activity in experimental pancreatitis induced by sodium taurocholate in rats. The data set is classed as in vivo. The settings on record: for ED50: Rattus norvegicus, ip, taurocholate pancreatitis. The method, then: The method described by Aho et al. (Scandinavian J. Gastroenterology 15 (1980), 411-16) was followed.
Male rats weighing approximately 250 g were subjected to laparotomy and the pancreas exposed. 0.3 ml of a 6% solution of sodium taurocholate were injected directly into the pancreatic tissue.
The products under examination were administered intraperitoneally (i.p.) 30 minutes before the operation and 3 hours after the operation.
6 hours after the laparotomy, blood was taken from the retro-orbital plexus after anaesthesia with ether, the animals were killed and the pancreas was removed and weighed. The activity of the serum amylase was determined by the Ceska method (Clin. Chim. Acta 26 (1969), 437-444).
The compounds were tested at various doses so as to enable the calculation of an ID50 value, that is the dose (in mg/kg i.p.) which is able to inhibit the toxic effect of the sodium taurocholate by 50%, expressed both as a % inhibition of the increase in weight of the pancreas and as a % inhibition of the increase in serum amylase.

Data set [4] is described as follows: Antispastic activity on the gallbladder in mice (egg yolk-induced emptying). The data set is classed as in vivo. To be noted: mouse, in vivo, ip, 75 mg/kg, read-out: death of the animals treated. Here is the method:
as §1, §2, §3, §4, §5, §6, §7

Data set [5] concerns the target T1, cholecystokinin receptors of ox gallbladder membranes (Bos taurus, UniProt A6QLH2).
T1 sequence (A6QLH2 1-427): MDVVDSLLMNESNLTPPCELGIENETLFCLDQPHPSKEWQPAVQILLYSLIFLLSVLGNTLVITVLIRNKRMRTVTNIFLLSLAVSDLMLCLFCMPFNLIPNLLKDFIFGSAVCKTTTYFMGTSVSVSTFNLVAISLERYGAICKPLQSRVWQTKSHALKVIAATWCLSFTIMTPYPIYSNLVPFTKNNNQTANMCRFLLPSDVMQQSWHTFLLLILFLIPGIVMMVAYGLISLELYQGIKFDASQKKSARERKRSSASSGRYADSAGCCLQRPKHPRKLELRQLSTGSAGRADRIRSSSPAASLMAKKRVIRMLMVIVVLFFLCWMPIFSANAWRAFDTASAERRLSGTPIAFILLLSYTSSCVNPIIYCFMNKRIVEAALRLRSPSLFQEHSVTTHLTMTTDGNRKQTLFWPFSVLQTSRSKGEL
Nature of the data set: Inhibition of binding of (125-I)-Bolton Hunter-CCK-8 to ox gallbladder membranes. The settings on record: 2 h at 25° C., pH 7.4, read-out: IC50 (displacement of 50% of the (125-I)-CCK-8 from the receptors). Here is the method: The capacity of some compounds of the invention to inhibit the binding of (125-I)-Bolton Hunter-CCK-8 to the cholecystokinin receptors of ox gallbladder membranes was evaluated by comparison with the displacement induced by cold (unmarked) CCK.
The ox gallbladder cell membranes were prepared by homogenisation with Tris buffer (pH 7.4) and centrifuging of the homogenate at 50,000 gravity for 10 minutes. The membranes were then incubated together with the radioactive tracer and the compounds under study for 2 h at 25° C.
After the supernatant liquid had been discarded, the radioactivity associated with the pellet was determined with a liquid scintillator. The specific binding was determined as the difference between the binding in the absence and in the presence of 10^-6 M CCK-8.

Setting [6] is: i.p. 15 minutes before the contractant.
Where [7] appears, read: read-out: ID50, inhibition of pancreas weight increase.
The mark [8] stands for this setting: read-out: ID50, inhibition of serum amylase increase.

For the compound `CCCCCN(CCCCC)C(=O)C(CCC(=O)O)NC(=O)c1ccc2ccccc2c1` (racemic) [Compound 19, D,L-4-(2-naphthoylamino)-5-(di-n-pentylamino)-5-oxopentanoicacid], the “% inhibition of the emptying of the gallbladder” value came to 12.1% in data set [1] (0.03 mg/kg i.p.), 41.2% in data set [1] (0.1 mg/kg i.p.) and 83.7% in data set [1] (0.3 mg/kg i.p.). In addition, in data set [1] (0.3 mg/kg), the “contraction of the gallbladder induced by the egg yolk (in words)” value was “almost completely blocks the contraction”. The ED50 in data set [1] (setting [6]) is 0.11 mg/kg; in data set [2], 0.05 mg/kg; in data set [3] (setting [7]), 1.7 mg/kg; in data set [3] (setting [8]), 1.1 mg/kg; in data set [3] (read-out: dose inhibiting the weight increase of the pancreas and the serum amylase increase by 50%), approximately 1.5 mg/kg. Moreover, the “% inhibition of the pyloric contraction” value in data set [2] (0.01 mg/kg i.p.) is on record as 17.3%; in data set [2] (0.03 mg/kg i.p.), 28.7%; in data set [2] (0.1 mg/kg i.p.), 70.7%; in data set [2] (0.3 mg/kg i.p.), 95.5%. For the same compound, the results for the “% inhibition amylase increase” value in data set [3] (1 mg/kg i.p. + taurocholate), in data set [3] (3 mg/kg i.p. + taurocholate) and in data set [3] (10 mg/kg i.p. + taurocholate) were 45.3%, 76.7% and 90.7%, respectively. For the same compound, the “% inhibition weight increase (pancreas)” value is listed as 33.3% in data set [3] (1 mg/kg i.p. + taurocholate), 73.3% in data set [3] (3 mg/kg i.p. + taurocholate) and 93.3% in data set [3] (10 mg/kg i.p. + taurocholate). Besides, the “% ratio pancreas weight / animal weight” value is 0.49% in data set [3] (1 mg/kg i.p. + taurocholate), 0.43% in data set [3] (3 mg/kg i.p. + taurocholate) and 0.40% in data set [3] (10 mg/kg i.p. + taurocholate). Besides, the “amylase in the serum” value in data set [3] (1 mg/kg i.p. + taurocholate) is on record as 12.7 U/ml; in data set [3] (3 mg/kg i.p. + taurocholate), 10.0 U/ml; in data set [3] (10 mg/kg i.p. + taurocholate), 8.8 U/ml.
Turning to `CCCCCN(CCCCC)C(=O)C(CC(=O)O)NC(=O)c1ccc2ccccc2c1` (stereo not shown) [Compound 26], the “% inhibition of the emptying of the gallbladder” value is given as 17.0% in data set [1] (0.1 mg/kg i.p.), 30.8% in data set [1] (0.3 mg/kg i.p.) and 66.7% in data set [1] (1.0 mg/kg i.p.). For the same compound, the ED50 was 0.53 mg/kg in data set [1] (setting [6]) and 0.14 mg/kg in data set [2]. Also, the “% inhibition of the pyloric contraction” value stood at 24.8% in data set [2] (0.03 mg/kg i.p.), 50.0% in data set [2] (0.1 mg/kg i.p.), 57.7% in data set [2] (0.3 mg/kg i.p.) and 78.9% in data set [2] (1.0 mg/kg i.p.).
Consider `CCCCCN(CCCOC)C(=O)C(CCC(=O)O)NC(=O)c1ccc2ccccc2c1` (stereo not shown) [Compound 28], for which the “% inhibition of the emptying of the gallbladder” value in data set [1] (0.1 mg/kg i.p.) was 16.5%; in data set [1] (0.3 mg/kg i.p.) it was 36.2%; in data set [1] (1.0 mg/kg i.p.) it was 58.8%. Besides, the ED50 turned out to be 0.62 mg/kg in data set [1] (setting [6]), 0.3 mg/kg in data set [2], 9.2 mg/kg in data set [3] (setting [7]) and 4.1 mg/kg in data set [3] (setting [8]). Besides, the “% inhibition of the pyloric contraction” value in data set [2] (0.03 mg/kg i.p.) is 12.5%; in data set [2] (0.1 mg/kg i.p.) it was 29.2%; in data set [2] (0.3 mg/kg i.p.) it was 46.7%; in data set [2] (1.0 mg/kg i.p.), 73.0%. Besides, the “% inhibition amylase increase” value in data set [3] (3 mg/kg i.p. + taurocholate) is reported as 45.0%; in data set [3] (10 mg/kg i.p. + taurocholate), 68.3%; in data set [3] (20 mg/kg i.p. + taurocholate), 88.3%. Also, the “% inhibition weight increase (pancreas)” value in data set [3] (3 mg/kg i.p. + taurocholate) was 29.2%; in data set [3] (10 mg/kg i.p. + taurocholate), 50.0%; in data set [3] (20 mg/kg i.p. + taurocholate), 66.6%. Further, the “% ratio pancreas weight / animal weight” value in data set [3] (3 mg/kg i.p. + taurocholate) was found to be 0.52%; in data set [3] (10 mg/kg i.p. + taurocholate), 0.47%; in data set [3] (20 mg/kg i.p. + taurocholate) it was 0.43%. Also, the “amylase in the serum” value in data set [3] (3 mg/kg i.p. + taurocholate) worked out at 11.0 U/ml; in data set [3] (10 mg/kg i.p. + taurocholate), 9.6 U/ml; in data set [3] (20 mg/kg i.p. + taurocholate), 8.4 U/ml.
For `COc1ccc(Cc2nccc3cc(OC)c(OC)cc23)cc1OC` [PAPAVERINE, papaverine, reference compound], in data set [4], the mortality came to 20%. For the same compound, the “% inhibition of the emptying of the gallbladder” value in data set [1] (25 mg/kg i.p.) is reported as 0%; in data set [1] (50 mg/kg i.p.) it was 0%; in data set [1] (75 mg/kg i.p.), 26.1%. The “ID50 (antispastic activity on contraction of the gallbladder induced by egg yolk)” value in data set [1] (setting [6]) is on record as “INACTIVE”. Moreover, the “antispastic activity on the gallbladder (in words)” value in data set [1] (only at the toxic dose of 75 mg/kg) was “slightly active”.
Regarding “CCK-8: cold (unmarked) CCK; cholecystokinin”, the concentration for half-maximal inhibition (IC50) in data set [5] amounted to 0.2 nM.
